Literature values as cited in patent US20050266409A1, “Compositions and methods for diagnosing, preventing, and treating cancers” (priority 2003, published 2005).

Key:
tumor cells = conditions: read-out: 50% growth inhibition of tumor cells
[1] = test system: lymphoid, myeloid, colon, and prostate cancer cells; conditions: prostate cancer xenografts in nude mice

For `CN1CC[C@H](c2c(O)cc(O)c3c(=O)cc(-c4ccccc4Cl)oc23)[C@H](O)C1` [Flavopiridol], the IC50 (tumor cells) is listed as 60 nM and the “inhibition of cancer cells grown in vivo as tumor xenografts” value [1] is listed as “inhibits”.
